From patent US20190374533A1, “COMPOUNDS AND METHODS FOR INHIBITING NHE-MEDIATED ANTIPORT IN THE TREATMENT OF DISORDERS ASSOCIATED WITH FLUID RETENTION OR SALT OVERLOAD AND GASTROINTESTINAL TRACT DISORDERS” (Ardelyx, Inc., priority 2008, published 2019)
pIC50: −log10 of the molar value. Counter-ions that a name gives are not always drawn. Like-named read-outs stand apart in the source and are kept apart here. Each block holds one compound with its values, some of them ahead of it.

Columns and labels:
[1] = human absorption data; cited from earlier work
[2] = target: T1, NHE-2 (Rattus norvegicus, UniProt P48763); settings: * = from rat; read-out: IC50 or Ki, NHE-2; cited from earlier work
T1 sequence (P48763 1-813): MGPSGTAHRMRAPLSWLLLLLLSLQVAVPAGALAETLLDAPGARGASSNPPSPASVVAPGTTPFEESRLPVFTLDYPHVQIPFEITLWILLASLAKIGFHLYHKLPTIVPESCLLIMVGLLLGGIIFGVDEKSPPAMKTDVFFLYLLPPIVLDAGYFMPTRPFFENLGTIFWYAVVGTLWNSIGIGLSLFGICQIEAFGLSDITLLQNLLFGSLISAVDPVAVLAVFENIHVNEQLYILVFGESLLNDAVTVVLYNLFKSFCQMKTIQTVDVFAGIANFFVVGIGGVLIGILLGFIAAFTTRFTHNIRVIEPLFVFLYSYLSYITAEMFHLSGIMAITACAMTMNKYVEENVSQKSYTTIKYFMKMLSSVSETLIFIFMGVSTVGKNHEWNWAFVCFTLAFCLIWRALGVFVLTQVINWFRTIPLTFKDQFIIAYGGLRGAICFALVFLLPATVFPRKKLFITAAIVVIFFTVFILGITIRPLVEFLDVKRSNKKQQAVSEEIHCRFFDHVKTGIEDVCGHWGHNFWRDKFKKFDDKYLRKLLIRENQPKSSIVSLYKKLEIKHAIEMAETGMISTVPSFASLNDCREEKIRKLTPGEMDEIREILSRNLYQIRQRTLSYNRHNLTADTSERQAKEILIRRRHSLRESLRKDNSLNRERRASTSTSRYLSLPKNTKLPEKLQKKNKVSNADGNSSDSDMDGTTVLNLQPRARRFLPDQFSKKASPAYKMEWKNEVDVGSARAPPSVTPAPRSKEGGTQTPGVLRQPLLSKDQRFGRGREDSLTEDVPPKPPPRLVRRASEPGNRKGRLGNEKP

[3] = target: NHE-1 (Homo sapiens, UniProt P19634); assay: Inhibition of NHE-1, literature data (Table 1), species not marked; assay type: cell-based; settings: selectivity NHE-1 over NHE-3, from Table 1
Sequence of NHE-1 (Homo sapiens, UniProt P19634) (P19634 whole entry, species assumed, canonical isoform): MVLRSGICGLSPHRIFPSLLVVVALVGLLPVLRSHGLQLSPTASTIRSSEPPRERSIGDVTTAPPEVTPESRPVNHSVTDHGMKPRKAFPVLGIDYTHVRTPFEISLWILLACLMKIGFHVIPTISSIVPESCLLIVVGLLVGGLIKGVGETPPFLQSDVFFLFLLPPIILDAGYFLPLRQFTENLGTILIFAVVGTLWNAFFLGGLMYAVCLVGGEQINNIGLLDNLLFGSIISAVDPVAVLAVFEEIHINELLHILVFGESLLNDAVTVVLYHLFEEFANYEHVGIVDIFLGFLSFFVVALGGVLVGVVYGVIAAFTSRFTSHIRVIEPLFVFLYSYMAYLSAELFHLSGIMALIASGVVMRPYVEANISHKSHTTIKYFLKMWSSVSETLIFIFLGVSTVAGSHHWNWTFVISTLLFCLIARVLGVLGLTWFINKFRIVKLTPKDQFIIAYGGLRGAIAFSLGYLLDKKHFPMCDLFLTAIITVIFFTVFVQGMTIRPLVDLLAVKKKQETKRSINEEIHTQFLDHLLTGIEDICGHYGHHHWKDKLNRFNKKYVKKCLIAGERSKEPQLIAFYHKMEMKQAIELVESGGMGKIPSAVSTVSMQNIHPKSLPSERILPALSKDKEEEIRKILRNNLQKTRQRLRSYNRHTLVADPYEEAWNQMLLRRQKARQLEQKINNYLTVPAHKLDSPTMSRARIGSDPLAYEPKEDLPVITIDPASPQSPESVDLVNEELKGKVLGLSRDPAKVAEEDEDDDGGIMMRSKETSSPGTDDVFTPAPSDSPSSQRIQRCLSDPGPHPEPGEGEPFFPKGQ
From the text: Shown below are examples of various NHE inhibiting small molecules and their selectivity across the NHE-1, -2 and -3 isoforms. (See, e.g., B. Masereel et al., An Overview of Inhibitors of Na+/H+ Exchanger, European J. of Med. Chem., 38, pp. 547-554 (2003), the entire contents of which is incorporated by reference here for all relevant and consistent purposes). […] It is thus possible to engineer NHE-3 selectivity into a chemical series optim/zed for potency against another antiporter isoform; that is, the inhibitor classes exemplified in the art may be suitably modified for activity and selectivity against NHE-3 (or alternatively NHE-2 and/or NHE-8), as well as being modified to be rendered substantially impermeable or substantially systemically non-bioavailable.

[4] = test system: fecal water content; assay: Pharmacodynamic model: effect of test compounds on fecal water content; assay type: in vivo, rat; settings: female Sprague Dawley rats, 3 mg/kg oral, feces collected 16 hrs; for % Fecal water: mean of 6
Experimental: Normal female Sprague Dawlev rats (Charles-River laboratories international, Hollister, Calif.), 7-8 weeks old with body weight 175-200 g were acclimated for at least 3 days before proceeding to experiments. The animals were provided food (Harlan Teklad 2018c) and water ad lib, through the experiment. Animals were randomly grouped with 6 rats per group.
The experiments were initiated by orally dosing test compounds at 3 mg/kg in volume of 10 ml/kg. Rats from control group were gavaged with the same volume of vehicle (water). After dosing, rats were placed in metabolic cages for 16 hrs (overnight). Food and water consumption were monitored. After sixteen hours, feces and urine were collected. The percent of fecal water was measured by weighing fecal samples before and after drying.
Representative data of % fecal water content are shown in Table 12 (data are expressed as means, with 6 animals per data point). The differences between control and treated groups were evaluated by one way ANOVA with Dunnett post tests. Results are significant if p<0.05.

[5] = test system: fecal water content, urinary sodium, fecal form; assay: Pharmacodynamic model: addition of a fluid absorbing polymer (1% Psyllium) to chow; assay type: in vivo, rat; settings: rats, chow with 1% Psyllium (FIGS. 5A-5C)
From the text: Rats were monitored for fecal water content as in Example 13, with the addition of a second group that were fed chow with the addition of 1% Psyllium to their diet. In addition to fecal water and urinary sodium, fecal form was monitored on a scale of 1-5, where 1 is a normal pellet, 3 indicates soft and unformed pellets, and 5 indicates watery feces.

[6] = test system: acute stress-induced visceral hypersensitivity; assay: Effect on acute stress-induced visceral hypersensitivity (colorectal distension); assay type: in vivo, rat; settings: female Wistar rats, partial restraint stress, 10 mg/kg oral, at 45 and 60 mm Hg, p<0.05 (FIG. 6)
Experimental: Female Wistar rats weighing 220-250 g were prepared for electromyography. The animals were anaesthetized, and three pairs of nichrome wire electrodes were implanted bilaterally in the striated muscles at 3 cm laterally from the midline. The free ends of electrodes were exteriorised on the back of the neck and protected by a glass tube attached to the skin. Electromyographic recordings (EMG) were begun 5 days after surgery. The electrical activity of the abdominal striated muscles were recorded with an electromyograph machine (Mini VIII; Alvar, Paris, France) using a short time constant (0.03 sec.) to remove low-frequency signals (<3 Hz).
Partial restraint stress (PRS), a relatively mild stress, was performed as follows. Briefly, animals were lightly anaesthetized with ethyl-ether, and their […], upper forelimbs and thoracic trunk were wrapped in a confining harness of paper tape to restrict, but not prevent their body movements and placed in their home cage for 2 hours. Control sham-stress animals were anaesthetized but not wrapped. […]
Colorectal distension (CRD) was accomplished as follows: rats were placed in a plastic tunnel, where they were not allowed to move or escape daily during 3 consecutive days (3 h/day) before any CRD. […] For each parameter studied (the number of abdominal contractions for each 5-min period during rectal distension) data is expressed as mean±SEM. […]

[7] = target: T2, rat NHE-3 (Rattus norvegicus, UniProt P26433); assay: Cell-based assay of NHE-3 activity (Pharmacological Test Example 1); settings: OK cells expressing rat NHE-3; 0-30 uM test compound, 5 uM EIPA; read-out: rat NHE-3 Average pIC50 (converted)
T2 construct: expressed in transfected cells; host or cells: Opossum kidney (OK) cells (ATCC), electroporated
T2 sequence (P26433 29-831): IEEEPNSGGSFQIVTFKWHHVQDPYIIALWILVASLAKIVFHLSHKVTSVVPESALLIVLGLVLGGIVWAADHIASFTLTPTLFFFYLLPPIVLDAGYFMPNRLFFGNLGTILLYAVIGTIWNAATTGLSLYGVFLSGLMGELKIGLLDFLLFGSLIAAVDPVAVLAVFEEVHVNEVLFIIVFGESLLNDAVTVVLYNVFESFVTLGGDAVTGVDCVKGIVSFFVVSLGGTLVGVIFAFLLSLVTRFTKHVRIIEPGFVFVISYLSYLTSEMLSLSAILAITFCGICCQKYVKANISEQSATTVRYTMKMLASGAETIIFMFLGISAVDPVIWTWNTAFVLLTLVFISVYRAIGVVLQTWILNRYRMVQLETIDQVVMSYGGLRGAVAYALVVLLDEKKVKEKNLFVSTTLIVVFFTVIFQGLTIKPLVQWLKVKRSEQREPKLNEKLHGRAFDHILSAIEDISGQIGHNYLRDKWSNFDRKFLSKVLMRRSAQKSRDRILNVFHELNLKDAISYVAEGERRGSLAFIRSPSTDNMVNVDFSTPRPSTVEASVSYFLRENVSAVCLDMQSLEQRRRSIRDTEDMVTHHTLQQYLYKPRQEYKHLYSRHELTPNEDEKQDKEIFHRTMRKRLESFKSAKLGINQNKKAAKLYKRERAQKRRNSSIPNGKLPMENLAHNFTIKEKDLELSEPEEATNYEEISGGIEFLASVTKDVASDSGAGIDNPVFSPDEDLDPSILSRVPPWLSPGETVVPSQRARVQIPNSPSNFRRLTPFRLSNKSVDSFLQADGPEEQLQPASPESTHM
In short: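 OK cells electroporated with rat NHE-3, loaded with 5 uM BCECF-AM in NH4Cl-HEPES (pH 7.4) for 30 min at room temperature, then acid-loaded 10 min in Na+-free choline buffer. Na+-dependent H+ antiport read as initial rate of pH-dye change; pIC50 from 3-6 replicate averages.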

[8] = test system: urinary sodium levels; assay: Pharmacodynamic model: effect of test compounds on urinary sodium levels; assay type: in vivo, rat; settings: rats, several oral dose levels, corrected for sodium intake (FIGS. 3A and 3B)
Experimental: It is anticipated that the reduction of absorption of sodium from the intestine will be reflected in reduced levels of sodium in the urine. To test this, the protocols in Example 13 were repeated, but urine was collected in addition to feces. Urine sodium levels were analyzed by ion chromatography (IC), and the amound of sodium excreted in the urine was corrected for variations in sodium intake by measuring food consumption.

[9] = Determination of compound Cmax and AUC; assay type: in vivo; settings: rat; Sprague-Dawley rats, oral gavage, serum 0.5-4 h; actual oral dose (mg/kg) given
In short: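 Sprague-Dawley rats dosed orally by gavage at 2.5 mg/kg; serum sampled at 0.5, 1, 2 and 4 h. Acetonitrile protein precipitation, then LC/MS/MS quantitation against a standard curve.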

[10] = target: NHE-1 (Rattus norvegicus, UniProt P26431); settings: * = from rat; read-out: IC50 or Ki, NHE-1; cited from earlier work
Sequence of NHE-1 (Rattus norvegicus, UniProt P26431) (P26431 whole entry): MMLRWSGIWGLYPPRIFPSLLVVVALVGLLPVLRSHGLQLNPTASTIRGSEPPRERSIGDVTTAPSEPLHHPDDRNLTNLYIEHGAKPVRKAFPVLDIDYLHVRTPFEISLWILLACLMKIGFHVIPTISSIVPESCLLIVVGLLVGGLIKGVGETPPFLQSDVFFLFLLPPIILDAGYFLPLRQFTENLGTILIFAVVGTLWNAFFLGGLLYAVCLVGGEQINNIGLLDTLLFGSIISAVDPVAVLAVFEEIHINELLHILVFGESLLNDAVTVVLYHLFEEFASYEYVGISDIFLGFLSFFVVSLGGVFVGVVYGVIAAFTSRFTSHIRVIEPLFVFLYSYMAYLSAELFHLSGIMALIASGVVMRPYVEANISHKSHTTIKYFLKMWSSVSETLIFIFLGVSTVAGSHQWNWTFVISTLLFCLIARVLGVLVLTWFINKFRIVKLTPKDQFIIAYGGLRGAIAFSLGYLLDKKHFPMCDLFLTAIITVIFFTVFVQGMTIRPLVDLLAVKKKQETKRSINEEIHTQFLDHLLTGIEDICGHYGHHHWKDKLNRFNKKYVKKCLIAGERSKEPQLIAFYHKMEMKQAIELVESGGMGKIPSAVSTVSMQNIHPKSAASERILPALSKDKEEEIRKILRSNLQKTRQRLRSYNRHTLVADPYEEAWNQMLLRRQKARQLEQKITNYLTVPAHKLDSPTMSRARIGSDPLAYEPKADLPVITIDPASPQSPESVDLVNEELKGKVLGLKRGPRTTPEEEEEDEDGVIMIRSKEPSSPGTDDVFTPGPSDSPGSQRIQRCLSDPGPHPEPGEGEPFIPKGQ

[11] = target: NHE-3 (Rattus norvegicus, UniProt P26433); settings: cited from earlier work
Sequence of NHE-3 (P26433 29-831): as the sequence (P26433 29-831) above

[12] = test system: gastrointestinal motility; assay: Restoration of gastrointestinal motility in opioid induced constipation (loperamide); assay type: in vivo, mice; settings: vehicle oral / loperamide s.c. (0.3 to 6 mg/kg), 30-minute period

Compound: OC[C@H]1O[C@H](OC[C@H]2O[C@H](O[C@]3(CO)O[C@H](CO)[C@@H](O)[C@@H]3O)[C@H](O)[C@@H](O)[C@@H]2O)[C@H](O)[C@@H](O)[C@H]1O [raffinose]
- % FA [1]: 0.3%

Compound: CCN(c1nc(N)c(C(=O)NC(=N)N)nc1Cl)C(C)C [EIPA, ethyl isopropyl amiloride]
- pIC50 [2]: 7.10

- fold more active against NHE-1 than NHE-3 [3]: reversed
Compound: C/C(=C\c1cc(C)ccc1/C=C(\C)C(=O)NC(=N)N)C(=O)N=C(N)N [Example S-3226, S-3226]

Compound: Cc1ccccc1N1C(=O)c2cc(S(N)(=O)=O)c(Cl)cc2NC1C (stereo not drawn) [metolazone, Metolazone, reference compound]
- % FA [1]: 64%

Compound: Cc1cc(=O)n(-c2ccccc2)n1C [phenazone]
- % FA [1]: 97%

Compound: CC(C)NCC(O)COc1cccc2[nH]ccc12 (stereo not drawn) [pindolol]
- % FA [1]: 92%

Compound: OC[C@@H](O)[C@@H](O)[C@H](O)[C@H](O)CO [mannitol, Mannitol, reference compound]
- % FA [1]: 26%

Compound: CN1Cc2c(Cl)cc(Cl)cc2C(c2cccc(S(=O)(=O)NCCOCCOCCOCCNC(=O)C(O)C(O)C(=O)NCCOCCOCCOCCNS(=O)(=O)c3cccc(C4CN(C)Cc5c(Cl)cc(Cl)cc54)c3)c2)C1 (single isomer, unassigned) [Example 224, N1,N4-bis(2-(2-(2-(2-(3-((S or R)-6,8-dichloro-2-methyl-1,2,3,4-tetrahydroisoquinolin-4-yl)phenylsulfonamido)ethoxy)ethoxy)ethoxy)ethyl)-2,3-dihydroxysuccinamide]
- % Fecal water (% of control) [4]: 125% of control
- % Fecal water [4]: 65%
- ability to increase fecal water content or decrease urinary sodium with Psyllium in the diet [5]: without impacting the ability
- visceral hypersensitivity to distension (abdominal contractions) [6]: reduces visceral hypersensitivity to distension

- IC50 [7]: < 100 nM
Compound: CN1Cc2c(Cl)cc(Cl)cc2[C@H](c2ccc(S(=O)(=O)NCCOCCOCCNC(=O)COCC(=O)NCCOCCOCCNS(=O)(=O)c3ccc([C@@H]4CN(C)Cc5c(Cl)cc(Cl)cc54)cc3)cc2)C1 (single isomer, unassigned) [Example 201, 2,2′-oxybis(N-(2-(2-(2-(4-((S or R)-6,8-dichloro-2-methyl-1,2,3,4-tetrahydroisoquinolin-4-yl)phenylsulfonamido)ethoxy)ethoxy)ethyl)acetamide) bis-hydrochloride salt]
- % Fecal water (% of control) [4]: 127% of control
- % Fecal water [4]: 63%
- amount of sodium excreted in the urine [8]: diminishes significantly and dose dependently

Compound: CC(=O)Nc1ccc(OCC(O)CNC(C)C)cc1 (stereo not drawn) [practolol]
- % FA [1]: 95%

Compound: C=CCOc1ccccc1OCC(O)CNC(C)C (stereo not drawn) [oxprenolol]
- % FA [1]: 97%

Compound: O=C(O)c1cc(/N=N/c2ccc(O)c(C(=O)O)c2)ccc1O [olsalazine]
- % FA [1]: 2.3%

- IC50 [7]: < 100 nM
- AUC [9]: < 15 ng·h/mL
- Cmax [9]: < 7 ng/mL
Compound: CN1Cc2c(Cl)cc(Cl)cc2[C@H](c2cccc(S(=O)(=O)NCCOCCOCCOCCNC(=O)NCCCCNC(=O)NCCOCCOCCOCCNS(=O)(=O)c3cccc([C@@H]4CN(C)Cc5c(Cl)cc(Cl)cc54)c3)c2)C1 (single isomer, unassigned) [Example 244, (S or R)—N,N′-(13,20-dioxo-3,6,9,24,27,30-hexaoxa-12,14,19,21-tetraazadotriacontane-1,32-diyl)bis(3-((S or R)-6,8-dichloro-2-methyl-1,2,3,4-tetrahydroisoquinolin-4-yl)benzenesulfonamide)]
- % Fecal water (% of control) [4]: 118% of control
- % Fecal water [4]: 61%
- amount of sodium excreted in the urine [8]: diminishes significantly and dose dependently

Compound: O=C(O)c1cc(/N=N/c2ccc(S(=O)(=O)Nc3ccccn3)cc2)ccc1O [sulfasalazine, reference compound]
- % FA [1]: 12%

- fold more active against NHE-1 than NHE-3 [3]: over 500 fold
Compound: C/C(=C\c1cccc(/C=C(\C)C(=O)NC(=N)N)c1)C(=O)N=C(N)N [Example S-2120, S-2120]

Compound: N=C(N)NC(=O)c1nc(Cl)c(N)nc1N [Amiloride, amiloride]
- pIC50 [10]: 5.80 to 6.00
- pIC50 ([11]; * = from rat, read-out: IC50 or Ki, NHE-3): < 4.00
- pIC50 ([11]; as restated in the text on Table 1, read-out: NHE-3 IC50): < 4.00

Compound: CN(C)C(=O)C(CCN1CCC(O)(c2ccc(Cl)cc2)CC1)(c1ccccc1)c1ccccc1 [loperamide, reference compound]
- length of the small intestine travelled by the Evans Blue dye front [12]: ~25%
